The values below come from patent publication US11078202B2, “β-lactamase inhibitor and use thereof” (priority 2018, dated 2021).

Molecules are shown by their SMILES. Like-named read-outs stand apart in the source and are kept apart here.

Common to all, as to assay type: cell-based
Test [1] relates to Klebsiella pneumoniae XNWB 0002 (KPC-2, SHV-5). Description: microbe, parasite or virus in culture. As to the method:
(§1) The bacterial strains used for the minimum inhibitory concentration (MIC) test were frozen in a −80° C. ULT freezer and thawed 2 days before use. A small amount of frozen bacterial strains were scraped using a sterile inoculating loop, streaked onto a TSA solid culture dish for inoculation, and then cultured for 20-24 h at 35±2° C. in a normal atmospheric environment.
(§2) 5-10 colonies with similar morphology were picked from the culture dish using a sterile inoculating loop and then re-streaked onto a suitable solid culture dish. Then the dish was placed into a normal incubator for culture for 20-24 h at 35±2° C.
(§3) 5-10 single bacterial colonies were picked from the solid culture dish, resuspended in 500 μL of 0.9% NaCl, and adjusted to an OD600 of 0.1-0.15 with a spectrophotometer.
(§4) The bacteria were then diluted 300-fold with 1.1×CAMHB.
(§5) After addition, the 6 assay plates were covered by sterile covers. The mixtures in the assay plates were centrifuged by a centrifuge at 1000 rpm for 30 s, and mixed uniformly by oscillating with a microplate oscillator at 800 rpm for 1 min, and then cultured in a common incubator for 16-20 h at 35±2° C.
(§6) The minimum inhibitory concentration of each compound was recorded by reference to guidelines from the Clinical and Laboratory Standards Institute.
(§7) The minimum inhibitory concentrations of the compounds of the present invention and antibiotics (imipenem, ceftazidime, and ampicillin) against 11 strains of bacteria were tested in this study by reference to the medium microdilution method as indicated by the Clinical and Laboratory Standards Institute. The effect of the test compounds in combination with imipenem, ceftazidime, and ampicillin was also tested. Compounds were diluted two-fold in 96-well plates from the highest detection concentration of 64 μg/mL. The test compounds were tested in combination with a fixed concentration of imipenem (4 μg/mL), ceftazidime (8 μg/mL), and ampicillin (8 μg/mL). The bacterial inocula in the assay plates were resuscitated from TSA and diluted in CAMHB, while growth controls (GC wells) and sterile controls (SC wells) were set up in the assay plates.

For test [2], the system named is Klebsiella pneumoniae XNWB 0004 (KPC-2, SHV-12). The test is described as follows: microbe, parasite or virus in culture. As to the method: as §1, §2, §3, §4, §5, §6, §7
Test [3] concerns Klebsiella pneumoniae XNWB 0006 (CTX-M-15, SHV). Description: MIC of antibiotics alone, broth microdilution. As to the method:
as §1, §2, §3, §4, §5, §6, §7

For test [4], the system named is Acinetobacter baumannii XNWB 0007 (AmpC). Description: MIC of antibiotics alone, broth microdilution. As to conditions: antibiotic alone, A. baumannii XNWB 0007, β-lactamase AmpC. As to the method: as §1, §2, §3, §4, §5, §6, §7
Test [5] relates to Klebsiella pneumoniae XNWB 0003 (KPC-11, SHV-12). Description: MIC of antibiotics alone, broth microdilution. As to the method:
as §1, §2, §3, §4, §5, §6, §7

Test [6] concerns Klebsiella pneumoniae XNWB 0001 (KPC-1/2). Description: MIC of antibiotics alone, broth microdilution. As to conditions: antibiotic alone, K. pneumoniae XNWB 0001, β-lactamase KPC-1/2. As to the method:
as §1, §2, §3, §4, §5, §6, §7
On the technique in general: Dilution methods test growth across graded concentrations, often in twofold steps.

The test system of test [7] is Escherichia coli XNWB 0010 (SHV-2). The test is described as follows: MIC of antibiotics alone, broth microdilution. The conditions noted are these: antibiotic alone, E. coli XNWB 0010, β-lactamase SHV-2. As to the method: as §1, §2, §3, §4, §5, §6, §7
Test [8] has as its system Pseudomonas aeruginosa XNWB 0008 (AmpC). Description: MIC of antibiotics alone, broth microdilution. As to the method: as §1, §2, §3, §4, §5, §6, §7
Test [9] relates to Escherichia coli XNWB 0009 (SHV-5A). The test is described as follows: MIC of antibiotics alone, broth microdilution. As to the method: as §1, §2, §3, §4, §5, §6, §7
Test [10] concerns Enterobacter aerogenes XNWB 0011 (TEM-10). The test is described as follows: MIC of antibiotics alone, broth microdilution. As to conditions: Klebsiella aerogenes; antibiotic alone; E. aerogenes XNWB 0011, β-lactamase TEM-10. As to the method: as §1, §2, §3, §4, §5, §6, §7
The test system of test [11] is Klebsiella pneumoniae XNWB 0005 (KPC-3). The test is described as follows: MIC of antibiotics alone, broth microdilution. As to the method: as §1, §2, §3, §4, §5, §6, §7
Setting [12] is: antibiotic alone, K. pneumoniae XNWB 0003, β-lactamase KPC-11, SHV-12, read-out: MIC.
Setting [13] is: antibiotic alone, P. aeruginosa XNWB 0008, β-lactamase AmpC, read-out: MIC.
The mark [14] stands for this setting: antibiotic alone, K. pneumoniae XNWB 0005, β-lactamase KPC-3, read-out: MIC.

As to `CC1(C)S[C@@H]2[C@H](NC(=O)[C@H](N)c3ccccc3)C(=O)N2[C@H]1C(=O)O` [Ampicillin], the MIC in test [1] was more than 32 µg/mL; in test [2], more than 32 µg/mL; in test [3] (antibiotic alone, K. pneumoniae XNWB 0006, β-lactamase CTX-M-15, SHV, read-out: MIC), more than 32 µg/mL; in test [4] it was more than 32 µg/mL; in test [5] (setting [12]) it was more than 32 µg/mL; in test [6], more than 32 µg/mL. Further, the MIC in test [7], in [8] (setting [13]), in [9], in test [10] and in [11] (setting [14]) was more than 32 µg/mL each time.

As for `C[C@@H](O)[C@H]1C(=O)N2C(C(=O)O)=C(SCCN=CN)C[C@H]12` [Imipenem], the MIC in test [1] was 32 to 64 µg/mL; in test [2] it was 64 µg/mL; in test [3] it was 0.125 to 0.5 µg/mL; in [4] it was 32 to 64 µg/mL; in test [5] (setting [12]), 8 to 16 µg/mL; in [6], 64 to 128 µg/mL. Also, the MIC in test [7] was not above 0.125 µg/mL; in test [8] (setting [13]), 16 to 32 µg/mL; in [9] it was 0.125 to 0.5 µg/mL; in test [10], 0.5 to 1 µg/mL; in test [11] (setting [14]), 32 to 64 µg/mL.

Consider `CC(C)(O/N=C(\C(=O)N[C@@H]1C(=O)N2C(C(=O)[O-])=C(C[n+]3ccccc3)CS[C@H]12)c1csc(N)n1)C(=O)O` [Ceftazidime], for which the MIC was 128 µg/mL in [1]; more than 128 µg/mL in test [2]; more than 128 µg/mL in test [3]; 64 µg/mL in test [4]; more than 128 µg/mL in test [5]; 64 to 128 µg/mL in test [6]. Moreover, the MIC in test [7] was 4 to 16 µg/mL; in [8], 128 µg/mL; in test [9], 16 to 32 µg/mL; in test [10], 0.5 to 1 µg/mL; in [11], more than 128 µg/mL.
